Laboratory results taken from US11186817B2, “Chemically defined cell culture media additive” (IUCF-HYU (INDUSTRY-UNIVERSITY COOPERATION FOUNDATION …, priority 2014, dated 2021).

System: CHO DG44 cell line
Test: Cell line growth in HY-CDM media supplemented with DHF
Assay type: cell-based, Chinese hamster
Description: 1. Cell line and media: CHO DG44 cell line was used as a DHFR-deficient cell line. The cell line was passaged 80 times or more and suspension adapted in HY-CDM (in-house) media as chemically defined media. The suspension-adapted cell line was used to evaluate the influence of tetrahydrofolate (THF) and dihydrofolate (DHF) and the growth characteristics in commercial chemically defined media. The HY-CDM media were composed of chemically defined components only. Each HY-CDM medium further included a growth factor. HY-CDM media used in Examples 1, 3, and 4 were free of an animal derived lipid mixture, and HY-CDM media used in Example 2 were supplemented with cod liver oil.
2. Cell suspension culture: The cell line was inoculated at a density of 4×10^5 cells/ml and cultured in an Erlenmeyer flask with a 30 ml/125 ml working volume on an orbital shaker at 120 rpm under humidified conditions at 37° C. and 5% CO2. Before inoculation, the cells were centrifuged at 1,000 rpm (×162 g) for 5 min, the supernatant was discarded, and the remaining cells were dispersed into single cells in the heated medium. The cells were passaged three times to minimize the influence of the remaining medium under the experimental conditions. The subcultured cells were evaluated.
3. Density of live cells: The density of live cells was analyzed using a hemocytometer (Neubauer improved bright-line, Marienfeld, Germany), an inverted microscope (CK30, Olympus, Japan), and trypan blue dye exclusion.
DHF was used at the same concentrations as THF. The addition of DHF at concentrations of […] improved cell growth by 11% and 24%, respectively (Table 8), which were about 7 times lower than the addition of THF.

**Q.** `Nc1nc(=O)c2c([nH]1)NCC(CNc1ccc(C(=O)N[C@@H](CCC(=O)O)C(=O)O)cc1)=N2` [DHF, dihydrofolate] was tested. Which “Increment compared to control” value (DHF 1.8 μM) did it give?
**A.** 1.5%

**Q.** And the “Maximum cell concentration, Average” value (DHF 1.8 μM)?
**A.** 18.0 ×10^5 cells/ml

**Q.** What about the “Increment compared to control” value (DHF 3.6 μM) of the same molecule?
**A.** 11.1%

**Q.** And the “Maximum cell concentration, Average” value (DHF 3.6 μM)?
**A.** 19.7 ×10^5 cells/ml

**Q.** What about the “Cell growth improvement lower than with the addition of THF” value (DHF 3.6 μM and 35.9 μM) of the same molecule?
**A.** about 7 times

**Q.** What about the “Increment compared to control” value (DHF 35.9 μM) of the same molecule?
**A.** 24.1%

**Q.** And the “Maximum cell concentration, Average” value (DHF 35.9 μM)?
**A.** 22.0 ×10^5 cells/ml

**Q.** What about the Improved cell growth (DHF 3.6 M) of the same molecule?
**A.** 11%

**Q.** And the Improved cell growth (DHF 35.9 M)?
**A.** 24%
